Assay results from ChEMBL document CHEMBL5131513, “Protein S-Nitrosation: Biochemistry, Identification, Molecular Mechanisms, and Therapeutic Applications” (J Med Chem, 2022).

Assays:
[1] = Inhibition of human GSNOR
[2] = Inhibition of NMDA-induced nNOS/PSD95 in rat cortical neurons preincubated for 30 mins followed by NMDA addition in presence of glutamate/glycine measured after 24 hrs by immunoprecipitation assay; assay type: cell-based; conditions: cortical neuron
Homo sapiens = species on record: Homo sapiens; assay: Inhibition of nNOS (unknown origin)/CAPON (unknown origin) protein-protein interaction assessed as residual activity by coimmunoprecipitation assay relative to control; design: concentration or dose not given beside the values
[3] = Inhibition of recombinant nNOS (1 to 299 residues) (unknown origin)/biotin-tagged PSD95 (unknown origin) protein-protein interaction by DELFIA; design: species or system Homo sapiens

## Cc1cc(C(N)=O)ccc1-n1c(CCC(=O)O)ccc1-c1ccc(Br)cc1
[1]
  IC50: 70 nM

## O=C(O)c1ccc(NCc2cc(Br)ccc2O)cc1O
[2]
  IC50: 10300 nM

## COC(=O)[C@H](NCCC(=O)O)C(C)C
Homo sapiens
  Activity: 87.8%

## Cc1cc(S(N)(=O)=O)ccc1-n1c(CCC(=O)O)ccc1-c1ccc(-n2ccnc2C)s1
[1]
  IC50: 22 nM

## COC(=O)c1ccc(NCc2cc(Cl)cc(Cl)c2O)cc1O
[2]
  IC50: 11200 nM

## CCOc1cc([C@@H]2NC(=O)NC(c3cccnc3)=C2c2ccsc2)cc(C(=O)O)c1O
[1]
  IC50: < 100 nM

## COC(=O)[C@@H](NC(=O)CC(=O)O)C(C)C
Homo sapiens
  Activity: 37.5%

## Cc1nccn1-c1ccc(-c2ccc(CCC(=O)O)n2-c2ccc(S(N)(=O)=O)cc2)s1
[1]
  IC50: 23 nM

## O=C(O)c1cc(NCc2cc(Cl)cc(Cl)c2O)ccc1O
[2]
  IC50: 870000 nM

## NC(=O)c1ccc(-c2cc(C(=O)O)ccc2C#Cc2ccc(O)cc2Cl)cc1
[1]
  IC50: < 50 nM

## O=C(O)c1ccc(NCCc2cc(Cl)cc(Cl)c2O)cc1O
[2]
  IC50: 597000 nM

## COC(=O)[C@@H](Cc1ccccc1)NC(=O)CC(=O)O
Homo sapiens
  Activity: 76.6%

## COc1cc(Cl)ccc1-c1ccc(CCC(=O)O)n1-c1ccc(C(N)=O)cc1C
[1]
  IC50: 56 nM

## COC(=O)CC(=O)N[C@@H](C(=O)OC)C(C)C
Homo sapiens
  Activity: 26.3%

## Cc1cc(C(N)=O)ccc1-n1c(CCC(=O)O)ccc1-c1ccc(Cl)cc1O
[1]
  IC50: 55 nM

## O=C(O)CCc1ccc(-c2ccc(-n3ccnc3)cc2)n1-c1ccc(O)cc1
[1]
  IC50: 39 nM

## COC(=O)CCC(=O)N[C@@H](C(=O)OC)C(C)C
Homo sapiens
  Activity: 61.8%

## COC(=O)[C@H](NC(=O)Cc1nnn[nH]1)C(C)C
Homo sapiens
  Activity: 49.4%

## Cc1nccn1-c1ccc(-c2ccc(CCC(=O)O)n2-c2ccc(O)cc2)s1
[1]
  IC50: 36 nM

## O=C(O)c1ccc(NCc2cc(Cl)ccc2O)cc1O
[2]
  IC50: 40100 nM

## O=C(O)c1ccc(C#Cc2ccc(O)cc2Cl)c(CCCn2cnnn2)c1
[1]
  IC50: < 50 nM

## Cc1cc(-n2ccnc2)ccc1-c1cc2sc(C(=O)O)cc2n1-c1ccc(C(N)=O)c(OCC(C)C)c1
[1]
  IC50: < 50 nM

## Oc1c(Cl)cc(Cl)cc1CNc1ccc2nn[nH]c2c1
[3]
  IC50: 31000 nM

## O=C(O)c1ccc(NCc2cc(F)ccc2O)cc1O
[2]
  IC50: 880 nM

## COC(=O)[C@H](NC(=O)CC(=O)O)C(C)C
Homo sapiens
  Activity: 30.5%

## Cc1cc(NS(C)(=O)=O)ccc1-n1c(CCC(=O)O)ccc1-c1ccc(-n2ccnc2)cc1
[1]
  IC50: 29 nM

## O=C(O)c1ccc(NCc2cc(Cl)cc(Cl)c2O)cc1O
[2]
  IC50: 82 nM

## CC(C)[C@@H](NC(=O)CC(=O)O)C(=O)O
Homo sapiens
  Activity: 75%

## Cc1cc(NS(C)(=O)=O)ccc1-n1c(CCC(=O)O)ccc1-c1ccc(-n2ccnc2C)s1
[1]
  IC50: 43 nM
